# According to patent publication US10150767B2, “Therapeutic compounds and uses thereof” (priority 2014, dated 2018):
# Target: CECR2 (Homo sapiens (Human), UniProt Q9BXF3)
# Test: CECR2 TR-FRET binding assay
# Conditions: biotinylated probe compound 1001, TR-FRET
# From the text: IC50 Measurements for Inhibitors Using CECR2 TR-FRET Binding Assay
# His/Flag epitope tagged CECR2424-538 was cloned, expressed, and purified to homogeneity.
# Chain of CECR2 (Q9BXF3 424-538 limits assumed): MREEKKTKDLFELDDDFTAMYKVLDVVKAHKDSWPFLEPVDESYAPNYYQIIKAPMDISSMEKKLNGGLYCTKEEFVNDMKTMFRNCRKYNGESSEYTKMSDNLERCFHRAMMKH
row,SMILES,IC50 [nM]
1,"CN1CCc2cc(-c3cn(C)c(=O)c4[nH]ccc34)ccc2C1 [Example 44, 6-methyl-4-(2-methyl-3,4-dihydro-1H-isoquinolin-6-yl)-1H-pyrrolo[2,3-c]pyridin-7-one]",54
2,"Cn1cc(-c2ccc(C(=O)Nc3ccccc3)cc2)c2cc[nH]c2c1=O [Example 35, 4-(6-methyl-7-oxo-1H-pyrrolo[2,3-c]pyridin-4-yl)-N-phenyl-benzamide]",75
3,"CN(C)C(=O)c1ccc(-c2cn(C)c(=O)c3[nH]ccc23)cc1 [Example 18, N,N-dimethyl-4-(6-methyl-7-oxo-1H-pyrrolo[2,3-c]pyridin-4-yl)benzamide]",730
4,"CN1CCN(C(=O)c2ccc(-c3cn(C)c(=O)c4[nH]ccc34)cc2)CC1=O [Example 26, 6-methyl-4-(4-(4-methyl-3-oxopiperazine-1-carbonyl)phenyl)-1H-pyrrolo[2,3-c]pyridin-7(6H)-one]",240
5,"CC1Oc2cc(-c3cn(C)c(=O)c4[nH]ccc34)ccc2NC1=O (stereo not shown) [Example 16, 2-methyl-7-(6-methyl-7-oxo-1H-pyrrolo[2,3-c]pyridin-4-yl)-4H-1,4-benzoxazin-3-one]",36
6,"Cc1cc2c(-c3cccc(C(=O)N(C)C)c3)cn(C)c(=O)c2[nH]1 [Example 47, 3-(2,6-dimethyl-7-oxo-1H-pyrrolo[2,3-c]pyridin-4-yl)-N,N-dimethyl-benzamide]",130
7,"Cn1cc(-c2ccc(C(=O)N3CC(F)(F)C3)cc2)c2cc[nH]c2c1=O [Example 28, 4-[4-(3,3-difluoroazetidine-1-carbonyl)phenyl]-6-methyl-1H-pyrrolo[2,3-c]pyridin-7-one]",130
8,"COCCC(=O)Nc1ccc(-c2cn(C)c(=O)c3[nH]ccc23)cc1 [Example 7, 3-methoxy-N-[4-(6-methyl-7-oxo-1H-pyrrolo[2,3-c]pyridin-4-yl)phenyl]propanamide]",170
9,"CCn1cc(-c2cccc(C(=O)N(C)C)c2)c2cc[nH]c2c1=O [Example 20, 3-(6-ethyl-7-oxo-1H-pyrrolo[2,3-c]pyridin-4-yl)-N,N-dimethyl-benzamide]",1300

# Target: TAF1-BD2 (Homo sapiens, UniProt P21675)
# Test: TAF1-BD2 TR-FRET binding assay
# Conditions: Assay: TAF-1; biotinylated probe compound 1000, TR-FRET
# Procedure: Specifically, in a 384 well ProxiPlate TAF1-BD2 (6 nM final) was combined with biotin-ligand (50 nM final) in 50 mM HEPES (pH 7.5), 50 mM NaCl, 1 mM TCEP, 0.01% (w/v) BSA, and 0.008% (w/v) Brij-35 either in the presence of DMSO (final 0.2% DMSO) or compound dilution series in DMSO. After 10 minutes incubation at room temperature, a mixture Eu-W1024 Anti-6×His antibody (Perkin Elmer AD0110) and SureLight™ Allophycocyanin-Streptavidin (APC-SA, Perkin Elmer CR130-100) were added to a final concentrations of 0.2 nMolar antibody and 25 nMolar APC-SA, respectively. After twenty minutes of equilibration, the plates were read on an Envision instrument and IC50s calculated using a four parameter non-linear curve fit.
row,IC50 [nM],SMILES
1,350,"Cn1cc(-c2ccc(C(=O)N3CCOCC3)cc2)c2cc[nH]c2c1=O [Example 30, 6-methyl-4-[4-(morpholine-4-carbonyl)phenyl]-1H-pyrrolo[2,3-c]pyridin-7-one]"

# Target: BRD9 (Homo sapiens (Human), UniProt Q9H8M2)
# Sequence (Q9H8M2 134-239 limits assumed): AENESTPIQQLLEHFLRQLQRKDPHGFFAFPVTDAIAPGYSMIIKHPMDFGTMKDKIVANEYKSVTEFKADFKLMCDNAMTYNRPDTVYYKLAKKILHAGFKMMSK
# Test: BRD9 AlphaLisa binding assay
# Conditions: biotinylated H4-tetraacetyl peptide
# Procedure: After 20 minutes incubation at room temperature AlphaLisa Streptavidin Acceptor Beads (Perkin-A[…]) and AlphaLisa Nickel donor beads (Perkin AS 10 ID) were added to a final concentration of 15 ug/mL each.
row,SMILES,IC50 [nM]
1,"CN1CCC(Cc2ccc(-c3cn(C)c(=O)c4[nH]ccc34)cc2)CC1 [Example 45, 6-methyl-4-[4-[(1-methyl-4-piperidyl)methyl]phenyl]-1H-pyrrolo[2,3-c]pyridin-7-one]",64
2,"Cn1cc(-c2ccc(NC(=O)OC(C)(C)C)cc2)c2cc[nH]c2c1=O [Example 6, tert-butyl N-[4-(6-methyl-7-oxo-1H-pyrrolo[2,3-c]pyridin-4-yl)phenyl]carbamate]",85
3,"Cn1cc(-c2ccc(C(C)(C)O)cc2)c2cc[nH]c2c1=O [Example 39, 4-[4-(1-hydroxy-1-methyl-ethyl)phenyl]-6-methyl-1H-pyrrolo[2,3-c]pyridin-7-one]",21
4,"CN1CCC(c2ccc(-c3cn(C)c(=O)c4[nH]ccc34)cc2)CC1 [Example 42, 6-methyl-4-[4-(1-methyl-4-piperidyl)phenyl]-1H-pyrrolo[2,3-c]pyridin-7-one]",53
5,"CC(C)(O)c1ccc(-c2cn(C3CC3)c(=O)c3[nH]ccc23)cc1 [Example 41, 6-cyclopropyl-4-(4-(2-hydroxypropan-2-yl)phenyl)-1H-pyrrolo[2,3-c]pyridin-7(6H)-one]",110
6,"Cn1cc(-c2ccc3c(c2)N(C(=O)OC(C)(C)C)CCC3)c2cc[nH]c2c1=O [Example 5, tert-butyl 7-(6-methyl-7-oxo-1H-pyrrolo[2,3-c]pyridin-4-yl)-3,4-dihydro-2H-quinoline-1-carboxylate]",130
7,"COCCNC(=O)c1ccc(-c2cn(C)c(=O)c3[nH]ccc23)cc1 [Example 3, N-(2-methoxyethyl)-4-(6-methyl-7-oxo-1H-pyrrolo[2,3-c]pyridin-4-yl)benzamide]",24
8,"CCCn1cc(-c2cccc(C(=O)N(C)C)c2)c2cc[nH]c2c1=O [Example 19, N,N-dimethyl-3-(7-oxo-6-propyl-1H-pyrrolo[2,3-c]pyridin-4-yl)benzamide]",238
9,"Cn1cc(-c2ccc3c(c2)NCCC(=O)N3)c2cc[nH]c2c1=O [Example 12, 7-(6-methyl-7-oxo-1H-pyrrolo[2,3-c]pyridin-4-yl)-1,3,4,5-tetrahydro-1,5-benzodiazepin-2-one]",25
10,"CC1CNc2cc(-c3cn(C)c(=O)c4[nH]ccc34)ccc2NC1=O (stereo not shown) [Example 11, 3-methyl-7-(6-methyl-7-oxo-1H-pyrrolo[2,3-c]pyridin-4-yl)-1,3,4,5-tetrahydro-1,5-benzodiazepin-2-one]",31

# Target: BRD4(BD1) (Homo sapiens (Human), UniProt O60885)
# Test: BRD4 AlphaLisa binding assay
# Conditions: biotinylated H4-tetraacetyl peptide
# From the text: IC50 Measurements for Inhibitors Using BRD4 AlphaLisa Binding Assay
row,IC50 [nM],SMILES
1,51,"Cn1cc(-c2ccc(C(=O)Nc3cccnc3)cc2)c2cc[nH]c2c1=O [Example 34, 4-(6-methyl-7-oxo-1H-pyrrolo[2,3-c]pyridin-4-yl)-N-(3-pyridyl)benzamide]"
2,320,"CC(=O)N1CCN(C(=O)c2ccc(-c3cn(C)c(=O)c4[nH]ccc34)cc2)CC1 [Example 32, 4-[4-(4-acetylpiperazine-1-carbonyl)phenyl]-6-methyl-1H-pyrrolo[2,3-c]pyridin-7-one]"
3,170,"CC1CCN(C(=O)c2ccc(-c3cn(C)c(=O)c4[nH]ccc34)cc2)CC1 [Example 31, 6-methyl-4-[4-(4-methylpiperidine-1-carbonyl)phenyl]-1H-pyrrolo[2,3-c]pyridin-7-one]"
4,84,"Cn1cc(-c2ccc(C(=O)N3CC(F)C3)cc2)c2cc[nH]c2c1=O [Example 27, 4-[4-(3-fluoroazetidine-1-carbonyl)phenyl]-6-methyl-1H-pyrrolo[2,3-c]pyridin-7-one]"
5,200,"CN(CC#N)C(=O)c1ccc(-c2cn(C)c(=O)c3[nH]ccc23)cc1 [Example 38, N-(cyanomethyl)-N-methyl-4-(6-methyl-7-oxo-1H-pyrrolo[2,3-c]pyridin-4-yl)benzamide]"
6,150,"Cn1cc(-c2cccc(C#N)c2)c2cc[nH]c2c1=O [Example 23, 3-(6-methyl-7-oxo-1H-pyrrolo[2,3-c]pyridin-4-yl)benzonitrile]"
7,260,"Cn1cc(-c2ccc(C(=O)N3CCC(C(N)=O)CC3)cc2)c2cc[nH]c2c1=O [Example 33, 1-[4-(6-methyl-7-oxo-1H-pyrrolo[2,3-c]pyridin-4-yl)benzoyl]piperidine-4-carboxamide]"
8,110,"CC(C)c1nc2cc(-c3cn(C)c(=O)c4[nH]ccc34)ccc2[nH]c1=O [Example 14, 3-isopropyl-6-(6-methyl-7-oxo-1H-pyrrolo[2,3-c]pyridin-4-yl)-1H-quinoxalin-2-one]"
9,81,"Cn1cc(-c2ccc3c(c2)N2CCCC2CC(=O)N3)c2cc[nH]c2c1=O (stereo not shown) [Example 15, 2-(6-methyl-7-oxo-1H-pyrrolo[2,3-c]pyridin-4-yl)-5,7,7a,8,9,10-hexahydropyrrolo[2,1-d][1,5]benzodiazepin-6-one]"
10,180,"Cn1cc(-c2cccc(C(N)=O)c2)c2cc[nH]c2c1=O [Example 21, 3-(6-methyl-7-oxo-1H-pyrrolo[2,3-c]pyridin-4-yl)benzamide]"
11,110,"Cn1cc(-c2ccc3c(c2)CCCN3C(=O)OC(C)(C)C)c2cc[nH]c2c1=O [Example 4, tert-butyl 6-(6-methyl-7-oxo-1H-pyrrolo[2,3-c]pyridin-4-yl)-3,4-dihydro-2H-quinoline-1-carboxylate]"
12,110,"CC1Nc2cc(-c3cn(C)c(=O)c4[nH]ccc34)ccc2NC1=O (stereo not shown) [Example 10, 3-methyl-6-(6-methyl-7-oxo-1H-pyrrolo[2,3-c]pyridin-4-yl)-3,4-dihydro-1H-quinoxalin-2-one]"
13,540,"Cn1cc(-c2ccccc2)c2cc[nH]c2c1=O [Example 1, 6-methyl-4-phenyl-1H-pyrrolo[2,3-c]pyridin-7(6H)-one]"
14,310,"Cn1cc(-c2ccc3c(c2)N2C(=O)CCC2C(=O)N3)c2cc[nH]c2c1=O (stereo not shown) [Example 9, 8-(6-methyl-7-oxo-6,7-dihydro-1H-pyrrolo[2,3-c]pyridin-4-yl)-3,3a-dihydropyrrolo[1,2-a]quinoxaline-1,4(2H,5H)-dione]"
15,280,"Cn1cc(-c2ccc(C(=O)N3CCCC3)cc2)c2cc[nH]c2c1=O [Example 29, 6-methyl-4-[4-(pyrrolidine-1-carbonyl)phenyl]-1H-pyrrolo[2,3-c]pyridin-7-one]"
16,710,"Cn1cc(-c2ccc(CO)cc2)c2cc[nH]c2c1=O [Example 25, 4-[4-(hydroxymethyl)phenyl]-6-methyl-1H-pyrrolo[2,3-c]pyridin-7-one]"
17,340,"CN(C(=O)c1ccc(-c2cn(C)c(=O)c3[nH]ccc23)cc1)c1ccccc1 [Example 36, N-methyl-4-(6-methyl-7-oxo-1H-pyrrolo[2,3-c]pyridin-4-yl)-N-phenyl-benzamide]"
18,210,"Cn1cc(-c2ccc3c(c2)CC(=O)N3)c2cc[nH]c2c1=O [Example 2, 6-methyl-4-(2-oxoindolin-5-yl)-1H-pyrrolo[2,3-c]pyridin-7-one]"
19,170,"CC1CC(=O)Nc2ccc(-c3cn(C)c(=O)c4[nH]ccc34)cc2N1 (stereo not shown) [Example 13, 4-methyl-7-(6-methyl-7-oxo-1H-pyrrolo[2,3-c]pyridin-4-yl)-1,3,4,5-tetrahydro-1,5-benzodiazepin-2-one]"
20,58,"Cn1cc(-c2ccc3c(c2)NC(c2cccs2)CC(=O)N3)c2cc[nH]c2c1=O (stereo not shown) [Example 17, 7-(6-methyl-7-oxo-1H-pyrrolo[2,3-c]pyridin-4-yl)-4-(2-thienyl)-1,3,4,5-tetrahydro-1,5-benzodiazepin-2-one]"
